From the NIST ThermoML archive (doi:10.1016/j.fluid.2015.04.014)
± gives the expanded uncertainty stated by the source.

Conditions: Crystal; visual observation

CC1(C)[C@@H]2CC[C@@]1(CS(=O)(=O)O)C(=O)C2 [(1S)-(+)-10-camphorsulfonic acid]
Normal melting temperature: 198.00 ± 4 °C
